Publication PMC7612312 (Nature chemical biology, 2019)

Tested on: clathrin heavy chain (CHC; antibody recognises both CHC1 and CHC2)
Test: CETSA
Type: biochemical, Arabidopsis thaliana

## O=S(=O)(Nc1ccccc1)c1ccc(Br)s1 [compound 14, ES9-17]
  EC50: 123 ± 1.13 µM
